Measurements from EP1561465A2, “Methods of use of fluoroquinolone compounds against bacteria” (LG Life Sciences, Ltd., priority 1999, dated 2001).
Values after ≈ are worked out from the molar mass of the structure shown. Read-outs that look alike come from different tables or passages of the source.

Key:
Type in all cases: cell-based
[1] = MIC by agar dilution, Brucella HK agar, 491 anaerobic clinical isolates
P. aeruginosa = assay: Urinary bactericidal titers (UBT) and AUBTC of volunteers' urine; conditions: P. aeruginosa (16) Laboratory No. 568; urine after gemifloxacin 320 mg or ofloxacin 400 mg
Moraxella catarrhalis [2] = assay: MIC by NCCLS reference broth microdilution, 450 respiratory tract pathogens
Salmonella spp. = assay: MIC by agar dilution (NCCLS M7-A4), 288 enteropathogenic isolates, gemifloxacin and 15 other antimicrobials; conditions: read-out: MIC
Staphylococcus aureus = assay: microbe, parasite or virus in culture
Escherichia coli = assay: MIC by NCCLS broth microdilution, 1100 Japanese clinical isolates 1997-1998; conditions: for MIC50 / MIC90: Escherichia coli
Yersinia enterocolitica = assay: MIC by agar dilution (NCCLS M7-A4), 288 enteropathogenic isolates, eight quinolones; conditions: Yersinia enterocolitica (n = 22)
Streptococcus pyogenes = assay: MIC by NCCLS broth microdilution, 1100 Japanese clinical isolates 1997-1998; conditions: Streptococcus pyogenes (n=51)
Klebsiella oxytoca = assay: as above; conditions: Klebsiella oxytoca (n=40)
Moraxella catarrhalis [3] = assay: MIC by agar dilution (NCCLS), 411 isolates Buenos Aires 1998-99; conditions: Moraxella catarrhalis (n = 59)
Haemophilus influenzae = assay: MIC by NCCLS reference broth microdilution, 450 respiratory tract pathogens; conditions: Haemophilus influenzae
[4] = Escherichia coli ciprofloxacin susceptible (n=37)
[5] = Haemophilus influenzae (n = 100)

SMILES: CO/N=C1\CN(c2nc3c(cc2F)c(=O)c(C(=O)O)cn3C2CC2)CC1CN (racemic) [Gemifloxacin, (R,S)-7-(3-aminomethyl-4-methoxyiminopyrrolidin-1-yl)-1-cyclopropyl-6-fluoro-4-oxo-1,4-dihydro-1,8-naphthyridine-3-carboxylic acid]
- MIC90 ([1]; clinical isolates of Bacteroides spp., Prevotella bivia and other Prevotella spp.): 8 to 32 µg/mL (≈ 20.5 to 82.2 µM)
- MIC ([1]; read-out: MIC90s): 0.125 to 0.5 µg/mL (≈ 0.321 to 1.28 µM)
- AUBTC (range) (P. aeruginosa): 48 (12-300)
- MIC (Moraxella catarrhalis [2]; Moraxella catarrhalis (n = 50)): 0.00375 to 0.03 µg/mL (≈ 0.00963 to 0.077 µM)
- MIC50 (Moraxella catarrhalis [2]; Moraxella catarrhalis (n = 50)): 0.015 µg/mL (≈ 0.0385 µM)
- MIC90 (Moraxella catarrhalis [2]; Moraxella catarrhalis (n = 50)): 0.015 µg/mL (≈ 0.0385 µM)
- MIC (Moraxella catarrhalis [2]; β-lactamase negative (n = 13)): 0.00375 to 0.015 µg/mL (≈ 0.00963 to 0.0385 µM)
- MIC50 (Moraxella catarrhalis [2]; β-lactamase negative (n = 13)): 0.015 µg/mL (≈ 0.0385 µM)
- MIC90 (Moraxella catarrhalis [2]; β-lactamase negative (n = 13)): 0.015 µg/mL (≈ 0.0385 µM)
- MIC (Moraxella catarrhalis [2]; β-lactamase positive (n = 37)): 0.00375 to 0.03 µg/mL (≈ 0.00963 to 0.077 µM)
- MIC50 (Moraxella catarrhalis [2]; β-lactamase positive (n = 37)): 0.015 µg/mL (≈ 0.0385 µM)
- MIC90 (Moraxella catarrhalis [2]; β-lactamase positive (n = 37)): 0.015 µg/mL (≈ 0.0385 µM)
- MIC (Salmonella spp.; S. hadar(2), isolates with MICs for ciprofloxacin ≥[…]): 0.25 µg/mL (≈ 0.642 µM)
- MIC (Salmonella spp.; S. newport(1), isolate with MIC for ciprofloxacin ≥[…]): 0.25 µg/mL (≈ 0.642 µM)
- MIC (Salmonella spp.; S. virchow(2), isolates with MICs for ciprofloxacin ≥[…]): 0.12 µg/mL (≈ 0.308 µM)
- MIC (Salmonella spp.; Salmonella, S. tshiongwe(1), isolate with MIC for ciprofloxacin ≥[…]): 0.25 µg/mL (≈ 0.642 µM)
- MIC Range (Staphylococcus aureus; Methicillin-resistant (38)): 0.031 to 32 µg/mL
- MIC Range (Staphylococcus aureus; Methicillin-susceptible (9)): 0.031 to 0.25 µg/mL
- increase of MIC (Staphylococcus aureus; S. aureus KU2240 with a single mutation in NorA, DNA gyrase or topoisomerase IV): 2-4 fold
- MIC90 (Staphylococcus aureus; Staphylococcus aureus, Methicillin-susceptible (9), read-out: MIC90): 0.25 µg/mL (≈ 0.642 µM)
- MIC (Staphylococcus aureus; Staphylococcus aureus, S. aureus KU2240, mutant type Wild (wild strain)): 0.031 µg/mL (≈ 0.0796 µM)
- MIC (Staphylococcus aureus; Staphylococcus aureus, S. aureus KU2240, read-out: MIC): 0.031 µg/mL (≈ 0.0796 µM)
- MIC (Staphylococcus aureus; Staphylococcus aureus, S. aureus KU2241, mutant type NorA (efflux-mediated quinolone resistant)): 0.063 µg/mL (≈ 0.162 µM)
- MIC (Staphylococcus aureus; Staphylococcus aureus, S. aureus KU2242, mutant type T (DNA topoisomerase IV)): 0.063 µg/mL (≈ 0.162 µM)
- MIC (Staphylococcus aureus; Staphylococcus aureus, S. aureus KU2244, mutant type G (DNA gyrase)): 0.125 µg/mL (≈ 0.321 µM)
- MIC (Staphylococcus aureus; Staphylococcus aureus, S. aureus KU2246, mutant type T (DNA topoisomerase IV)): 0.125 µg/mL (≈ 0.321 µM)
- MIC Range (Escherichia coli; [4]): ≤0.008 to 0.125 µg/mL
- MIC50 (Escherichia coli; Escherichia coli ciprofloxacin resistant (n=5)): 32 µg/mL (≈ 82.2 µM)
- MIC90 (Escherichia coli; Escherichia coli ciprofloxacin resistant (n=5), values marked *: MIC80 value): 32 µg/mL (≈ 82.2 µM)
- MIC50 (Escherichia coli; [4]): ≤ 0.008 µg/mL
- MIC90 (Escherichia coli; [4]): 0.032 µg/mL (≈ 0.0822 µM)
- % Susceptible (Yersinia enterocolitica): 100%
- MIC50 (Yersinia enterocolitica): 0.03 µg/mL (≈ 0.077 µM)
- MIC90 (Yersinia enterocolitica): 0.03 µg/mL (≈ 0.077 µM)
- MIC Range (Yersinia enterocolitica): ≤0.015 to 0.12 µg/mL
- MIC90 (Streptococcus pyogenes): 0.063 µg/mL (≈ 0.162 µM)
- MIC Range (Streptococcus pyogenes): 0.016 to 0.125 µg/mL
- MIC50 (Streptococcus pyogenes; read-out: MIC50): 0.032 µg/mL (≈ 0.0822 µM)
- MIC50 (Klebsiella oxytoca): 0.032 µg/mL (≈ 0.0822 µM)
- MIC90 (Klebsiella oxytoca): 4 µg/mL (≈ 10.3 µM)
- MIC Range (Klebsiella oxytoca): ≤0.008 to 32 µg/mL
- MIC Range (Moraxella catarrhalis [3]): ≤0.004 to 0.016 µg/mL
- MIC90 (Moraxella catarrhalis [3]; read-out: MIC90): 0.008 µg/mL (≈ 0.0205 µM)
- MIC (Haemophilus influenzae; [5]): 0.0075 to 0.06 µg/mL (≈ 0.0193 to 0.154 µM)
- MIC50 (Haemophilus influenzae; [5]): ≤ 0.0075 µg/mL
- MIC90 (Haemophilus influenzae; Haemophilus influenzae (n = 100), read-out: MIC90): ≤ 0.00075 µg/mL
- MIC (Haemophilus influenzae; β-lactamase negative (n = 80)): 0.0075 to 0.015 µg/mL (≈ 0.0193 to 0.0385 µM)
- MIC50 (Haemophilus influenzae; β-lactamase negative (n = 80)): ≤ 0.0075 µg/mL
